From patent US7049321B2, “Methods and pharmaceutical compositions for treatment of central and peripheral nervous system disorders and compounds useful therefor” (Israel Institute for Biological Research, priority 2002, dated 2006) come the findings set out here.

SMILES strings stand for the structures.

One assay deals with T1, M2 mAChR (Homo sapiens, UniProt P08172).
T1 construct: expressed in transfected cells; host or cells: 'modified cell cultures' giving a Ca increase; modification not described
Briefly: Intracellular Ca increase in modified cell cultures, M2. In kind it is cell-based.

In another assay the target is muscarinic receptor. Put plainly: [3H]OXO-M competition binding. To be noted: rat cortex.
In a further assay the target is T2, M1 receptors (Rattus norvegicus, UniProt P08482).
T2 construct: from tissue; host or cells: rat cortical membranes
T2 sequence (P08482 1-460): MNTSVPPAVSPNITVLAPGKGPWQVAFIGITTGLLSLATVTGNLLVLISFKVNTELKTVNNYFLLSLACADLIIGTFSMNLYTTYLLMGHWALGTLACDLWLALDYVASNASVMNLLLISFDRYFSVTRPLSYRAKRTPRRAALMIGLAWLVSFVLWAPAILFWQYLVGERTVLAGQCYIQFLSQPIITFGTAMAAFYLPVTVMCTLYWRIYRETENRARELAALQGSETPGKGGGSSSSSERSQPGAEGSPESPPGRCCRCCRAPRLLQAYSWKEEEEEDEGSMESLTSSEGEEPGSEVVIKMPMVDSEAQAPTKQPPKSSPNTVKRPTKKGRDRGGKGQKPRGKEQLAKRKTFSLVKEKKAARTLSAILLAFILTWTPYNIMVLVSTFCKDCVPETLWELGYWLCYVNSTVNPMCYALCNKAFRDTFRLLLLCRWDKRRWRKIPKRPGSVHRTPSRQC
Put plainly: [3H]PZ competition binding to rat cortical membranes. To be noted: rat cortex. From the text: Pirenzepine (PZ), a muscarinic antagonist, binds preferentially to M1 receptors while OXO-M binds to all mAChR subtypes non-selectively; the ratio between the Ki values for PZ versus that of OXO-M may be indicative of the selectivity of the tested compound. The smaller the ratio, the more M1 selective is the tested compound. […] The OXO-M/PZ ratio is ˜0.36 showing a moderately high selectivity for the M1 receptor.

Assay [1] concerns rat primary cerebral cortex cell cultures. Put plainly: APPs secretion in rat primary cortical cell cultures. Type of assay: cell-based. To be noted: 100 μm.
In the next assay the test system is rabbits with nbm lesions. Put plainly: CSF and cortical Aβ in hypocholinergic (nbm-lesioned) rabbits. Type of assay: in vivo, New Zealand White rabbits. To be noted: 4 weeks. From the text:
It is known that experimentally-induced cortical cholinergic denervation results in biochemical elevations of cortical Aβ concentrations and in histologic Aβ deposition (Beach et al, Neurosci Lett 283: 9–12, 2000), and that administration of muscarinic Ml-selective agents to normal animals decreases CSF AP concentrations {Beach et al Brain Res. 905: 220–223, 2001}.
Twenty-eight female New Zealand White rabbits, about 2.5 kg each (young adults) were used. Twenty-one received lesions of the cholinergic nucleus basalis magnocellularis (nbm). The lesion was accomplished with unilateral i.c.v. injections of an immunotoxin consisting of the ribosomal toxin saporin conjugated to the monoclonal antibody ME20.4, which is directed against the low-affinity neurotrophin receptor, p75. The ME20.4 antibody is made against monkey p75 and also recognizes rabbit p75. The dose of immunotoxin was 32.4 μg in 12 μl; this was delivered to the right lateral ventricle 2 mm lateral to the bregma. Seven animals received i.c.v. injections of sterile normal saline (sham lesion). Animals which received the immunotoxin were divided into 3 groups of 7. […] Another group received physostigmine hemisalicylate in normal saline by s.c. osmotic pump at a daily dose of 3 mg/kg. The third group received twice-daily sterile saline s.c. injections. The animals which received a sham lesion were implanted with s.c. osmotic pumps filled with sterile normal saline. Animals were euthanized 4 weeks after surgery. […] Cerebrospinal fluid was taken from the cisterna magna of all animals at the time of sacrifice; the brain was removed and sliced coronally into 0.5 cm slices. […] The other slices were frozen on sheets of dry ice (the other slices are the non-fixed 0.5 cm coronal slices of cerebrum, brainstem and cerebellum).

Assay [2] has as its system rat primary hippocampal cell cultures. Briefly: APPs secretion in rat primary hippocampal cell cultures. To be noted: 100 μm. Type of assay: cell-based.

T1 sequence (P08172 whole entry): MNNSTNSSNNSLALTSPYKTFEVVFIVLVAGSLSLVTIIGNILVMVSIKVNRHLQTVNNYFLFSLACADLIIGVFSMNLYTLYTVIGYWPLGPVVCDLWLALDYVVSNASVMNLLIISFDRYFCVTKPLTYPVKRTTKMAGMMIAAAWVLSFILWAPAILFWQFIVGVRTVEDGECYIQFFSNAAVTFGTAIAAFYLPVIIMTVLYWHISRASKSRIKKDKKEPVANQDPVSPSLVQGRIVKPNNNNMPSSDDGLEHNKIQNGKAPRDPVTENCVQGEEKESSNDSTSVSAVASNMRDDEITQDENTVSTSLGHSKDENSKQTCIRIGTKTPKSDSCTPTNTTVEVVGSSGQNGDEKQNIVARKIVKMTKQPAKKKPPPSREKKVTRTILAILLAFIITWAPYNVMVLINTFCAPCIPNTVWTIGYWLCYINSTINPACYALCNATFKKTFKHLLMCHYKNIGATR

For `C[N+](C)(C)CCOC(N)=O` [carbachol, reference compound], at M2 mAChR, the “Increase in activity on the M2 mAChR” value is listed as 8 fold.

With `CC[C@H]1SC2(CCNCC2)NC1=O` [AF291, (R)-2-Ethyl-1-thia-4,8-diaza-spiro[4.5]decan-3-one], the values for the Ki at muscarinic receptor and on M1 receptors were 6.56 µM and 10.7 µM, respectively.

`CNC(=O)Oc1ccc2c(c1)[C@]1(C)CCN(C)[C@@H]1N2C` [physostigmine, reference compound]: the “APPs secretion, activity in words” value in assay [1] and in assay [2] was “inactive” in each case. In addition, the “Histologic Aβ deposition, % of the lesioned, untreated group” value in the assay with rabbits with nbm lesions came out at 6.4%.

Take `O=C1CCCN1CC#CCN1CCCC1` [Oxotremorine, oxotremorine, reference compound]: the “APPs secretion, activity in words” value in assay [1] and in assay [2] was “inactive” in each case.
